For assay [1], the system named is HCV genotype 1a subgenomic replicon with NS3 resistance mutation R155K. The experiment in a line: HCV replicon RNA replication assay, R155K 1a. Type of assay: cell-based, HCV genotype 1a (strain H77), Huh-7 cells. The following applies: Hepatitis C virus, read-out: R155K 1a Ec50 (nM). Background: A replicon is a self-replicating genome or part of one, used to study replication in cells.

The test system of assay [2] is HCV genotype 1b subgenomic replicon with NS3 resistance mutation D168V. The experiment in a line: HCV replicon RNA replication assay, D168V 1b. Type of assay: cell-based, HCV genotype 1b (Con-1), Huh-7 cells. To be noted: Hepatitis C virus, read-out: D168V 1b Ec50 (nM).
Assay [3] deals with HCV genotype 1a subgenomic replicon with NS3 resistance mutation D168V. Briefly: HCV replicon RNA replication assay, D168V 1a. The class given is cell-based, HCV genotype 1a (strain H77), Huh-7 cells. To be noted: Hepatitis C virus, read-out: D168V 1a Ec50 (nM).
The test system of assay [4] is HCVPV1a subgenomic replicon (wild type 1a). Briefly: HCV replicon RNA replication assay, wild type 1a. The class given is cell-based, HCV genotype 1a (strain H77), Huh-7 cells. To be noted: Hepatitis C virus, read-out: WT 1a Ec50.
Assay [5] concerns HCVPV1b subgenomic replicon (wild type 1b). Briefly: HCV replicon RNA replication assay, wild type 1b. The following applies: Hepatitis C virus, read-out: WT 1b Ec50. Type of assay: cell-based, HCV genotype 1b (Con-1), Huh-7 cells.
The mark [6] stands for this setting: Table 1, luciferase replicon, Huh-7, 72 h.
The mark [7] stands for this setting: Table 2, clinical comparators, wildtype genotype 1a.
The mark [8] stands for this setting: Table 2, clinical comparators, wildtype genotype 1b.

Read-outs that look alike come from different tables or passages of the source.

The EC50 is the midpoint of the concentration-response curve.

Turning to `COc1c(F)ccc2c(O[C@@H]3C[C@H]4C(=O)N[C@]5(C(=O)NS(=O)(=O)C6(C)CC6)C[C@H]5/C=C\CCCCC[C@H](NC(=O)c5ccn(CC(F)(F)F)n5)C(=O)N4C3)cc(OC(C)C)nc12` [Compound 1026, (2R,6S,12Z,13aS,14aR,16aS)-2-{[7-fluoro-8-methoxy-2-(propan-2-yloxy)quinolin-4-yl]oxy}-N-[(1-methylcyclopropyl)sulfonyl]-5,16-dioxo-6-({[1-(2,2,2-trifluoroethyl)-1H-pyrazol-3-yl]carbonyl}amino)-1,2,3,6,7,8,9,10,11,13a,14,15,16,16a-tetradecahydrocyclopropa[e]pyrrolo[1,2-a][1,4]diazacyclopentadecine-14a(5H)-carboxamide], the EC50 in assay [1] (Huh-7, 72 h) came to 1.6 nM; in assay [2] (Huh-7, 72 h), 0.34 nM; in assay [3] (Huh-7, 72 h) it was 0.7 nM; in assay [4] (setting [6]) it was 0.52 nM; in assay [5] (setting [6]), 0.31 nM.
`Cc1ccc2c(O[C@@H]3C[C@H]4C(=O)N[C@]5(C(=O)NS(=O)(=O)C6(C)CC6)C[C@H]5/C=C\CCCCC[C@H](NC(=O)c5ccn(C)n5)C(=O)N4C3)cc(OC(C)C)nc2c1Br` [Compound 1024, (2R,6S,12Z,13aS,14aR,16aS)-2-{[8-bromo-7-methyl-2-(propan-2-yloxy)quinolin-4-yl]oxy}-N-[(1-methylcyclopropyl)sulfonyl]-6-{[(1-methyl-1H-pyrazol-3-yl)carbonyl]amino}-5,16-dioxo-1,2,3,6,7,8,9,10,11,13a,14,15,16,16a-tetradecahydrocyclopropa[e]pyrrolo[1,2-a][1,4]diazacyclopentadecine-14a(5H)-carboxamide]: the EC50 in assay [1] (Huh-7, 72 h) is 9.3 nM; in assay [2] (Huh-7, 72 h) it was 0.09 nM; in assay [3] (Huh-7, 72 h), 1.9 nM; in assay [4] (setting [6]) it was 0.1 nM; in assay [5] (setting [6]), 0.13 nM.
For the molecule `COc1ccc2c(O[C@@H]3C[C@H]4C(=O)N[C@]5(C(=O)NS(=O)(=O)C6(C)CC6)C[C@H]5/C=C\CCCCC[C@H](NC(=O)c5ccn(C)n5)C(=O)N4C3)cc(OC(C)C)nc2c1C` [Compound 1007, (2R,6S,12Z,13aS,14aR,16aS)-2-{[7-methoxy-8-methyl-2-(propan-2-yloxy)quinolin-4-yl]oxy}-N-[(1-methylcyclopropyl)sulfonyl]-6-{[(1-methyl-1H-pyrazol-3-yl)carbonyl]amino}-5,16-dioxo-1,2,3,6,7,8,9,10,11,13a,14,15,16,16a-tetradecahydrocyclopropa[e]pyrrolo[1,2-a][1,4]diazacyclopentadecine-14a(5H)-carboxamide], the 50% effective concentration (EC50) is 1.7 nM in assay [1] (Huh-7, 72 h); 0.18 nM in assay [2] (Huh-7, 72 h); 4.5 nM in assay [3] (Huh-7, 72 h); 0.25 nM in assay [4] (setting [6]); 0.2 nM in assay [5] (setting [6]).
In the case of `CC(C)(C)OC(=O)N[C@H]1CCCCC/C=C\[C@@H]2C[C@@]2(C(=O)NS(=O)(=O)C2CC2)NC(=O)[C@@H]2C[C@@H](OC(=O)N3Cc4cccc(F)c4C3)CN2C1=O` [reference compound], the EC50 in assay [1] worked out at 690 nM; in assay [2], 120 nM; in assay [3], 180 nM; in assay [4] (setting [7]) it was 2.1 nM; in assay [5] (setting [8]) it was 5.4 nM.
On to `COc1ccc2c(O[C@@H]3C[C@H]4C(=O)N[C@]5(C(=O)NS(=O)(=O)C6(C)CC6)C[C@H]5/C=C\CCCCC[C@H](NC(=O)c5ccn(CCF)n5)C(=O)N4C3)cc(OC(C)C)nc2c1C` [Compound 1004, (2R,6S,12Z,13aS,14aR,16aS)-6-({[1-(2-fluoroethyl)-1H-pyrazol-3-yl]carbonyl}amino)-2-{[7-methoxy-8-methyl-2-(propan-2-yloxy)quinolin-4-yl]oxy}-N-[(1-methylcyclopropyl)sulfonyl]-5,16-dioxo-1,2,3,6,7,8,9,10,11,13a,14,15,16,16a-tetradecahydrocyclopropa[e]pyrrolo[1,2-a][1,4]diazacyclopentadecine-14a(5H)-carboxamide], for which the EC50 in assay [1] (Huh-7, 72 h) turned out to be 1.3 nM; in assay [2] (Huh-7, 72 h), 0.15 nM; in assay [3] (Huh-7, 72 h), 1.8 nM; in assay [4] (setting [6]), 0.24 nM; in assay [5] (setting [6]), 0.27 nM.
With `COc1ccc2c(O[C@@H]3C[C@H]4C(=O)N[C@@]5(C(=O)NS(=O)(=O)C6CC6)C[C@@H]5/C=C\CCCCN(C)C(=O)[C@@H]4C3)cc(-c3nc(C(C)C)cs3)nc2c1C` [reference compound], the concentration giving a half-maximal response (EC50) in assay [1] is 300 nM; in assay [2] it was 4400 nM; in assay [3], 3500 nM; in assay [4] (setting [7]) it was 0.7 nM; in assay [5] (setting [8]) it was 1.2 nM.
Take `COc1c(F)ccc2c(O[C@@H]3C[C@H]4C(=O)N[C@]5(C(=O)NS(=O)(=O)C6(C)CC6)C[C@H]5/C=C\CCCCC[C@H](NC(=O)c5ccn(C(F)F)n5)C(=O)N4C3)cc(OC(C)C)nc12` [Compound 1027, (2R,6S,12Z,13aS,14aR,16aS)-6-({[1-(difluoromethyl)-1H-pyrazol-3-yl]carbonyl}amino)-2-{[7-fluoro-8-methoxy-2-(propan-2-yloxy)quinolin-4-yl]oxy}-N-[(1-methylcyclopropyl)sulfonyl]-5,16-dioxo-1,2,3,6,7,8,9,10,11,13a,14,15,16,16a-tetradecahydrocyclopropa[e]pyrrolo[1,2-a][1,4]diazacyclopentadecine-14a(5H)-carboxamide]: the EC50 is 4.7 nM in assay [1] (Huh-7, 72 h); 0.39 nM in assay [2] (Huh-7, 72 h); 2.2 nM in assay [3] (Huh-7, 72 h); 0.47 nM in assay [4] (setting [6]); 0.33 nM in assay [5] (setting [6]).

The values are drawn from patent US20120077737A1, “HEPATITIS C INHIBITOR COMPOUNDS” (priority 2009, published 2012).
